The record followed here is US10570418B2, “Methods and compositions for RNA-directed target DNA modification” (The Regents of the University of California, priority 2014, dated 2020).

For series [1], the system named is EMX1 locus in HEK293T cells. The experiment in a line: HDR frequency by HindIII digestion, EMX1 locus, HEK293T cells. It is filed as cell-based, human. The settings on record: for HDR efficiency: 50-200 ρmol template 1. An excerpt: (§1) For EMX1: forward [NT] ID NO:1404) and [NT] NO:1405). For DYRK1: forward [NT] ID NO:1406) and reverse [NT] NO:1407).
The subject of series [2] is EMX1 locus in HEK293T cells. The experiment in a line: NHEJ frequency by T7 endonuclease I assay, EMX1 locus, HEK293T cells. It is filed as cell-based, human. The settings on record: for NHEJ frequency: nocodazole-treated cells (200 ng/ml, 17 h), 50-200 ρmol template 1.
Description: as §1

The next series relates to human ES cells. The experiment in a line: Cell viability of human ES cells during synchronization. Conditions: hES cells; aphidicolin treatment after nocodazole, at 10 h. It is filed as cell-based.
The test system of a further series is HEK293T cells. The experiment in a line: FACS analysis of DNA content / cell cycle. It is filed as cell-based, human. The settings on record: nocodazole-treated vs untreated cells. An excerpt: The first objective was to test whether S phase was ideal for HDR in HEK293T cells. The approach was to chemically and reversibly synchronize the cells at G1, S and M phases (FIG. 1A). Lovastatin blocks at early G1 and partially at G2/M phase, by inhibiting HMG-CoA reductase and resulting in the depletion of mevalonate, which is an essential substrate for cholesterol synthesis. Mimosine arrests cells at the G1-S border prior to onset of DNA replication by an unknown mechanism. […] Excess thymidine causes feedback inhibition of deoxycytosine synthesis. Hydroxyurea blocks cells at S phase by decreasing the production of deoxyribonucleotide via inhibition of the enzyme ribonucleotide reductase. Nocodazole inhibits microtubule polymerization which is a signature structural feature as cells enter mitosis, causing arrest at G2/M phase. The drugs effects were confirmed by fluorescence activated cell sorter (FACS) analysis of the cell cycle (FIG. 1B).
FIG. 1A-1D depict the effect of cell cycle synchronization on NHEJ and HDR frequencies in HEK293T cells. (A) Chemical inhibitors were used to arrest cells at specific phases of cell cycle. Lovastatin (Lov) blocks cells in G1 phase by inhibiting cholesterol synthesis. […] The mean % NHEJ/HDR and standard deviation (error bars) were calculated from three experiments.

In series [3] the test system is DYRK1 locus in HEK293T cells. The experiment in a line: NHEJ frequency by T7 endonuclease I assay, DYRK1 locus, HEK293T cells. It is filed as cell-based, human. Conditions: for NHEJ frequency: nocodazole synchronized cells.
Series [4] relates to EMX1 locus in human embryonic stem cells (hES). The experiment in a line: NHEJ frequency by T7 endonuclease I assay, EMX1 locus, human ES cells. The series is classed as cell-based. Conditions: nocodazole synchronization (16 h), 100 ρmol template 4.
The test system is the same in series [5]. Briefly: HDR frequency by HindIII digestion, EMX1 locus, human ES cells. The series is classed as cell-based. The settings on record: nocodazole synchronization (16 h), 30 or 100 ρmol Cas9 RNP, template 4.
Series [6] has as its system DYRK1 locus in HEK293T cells. Briefly: HDR frequency by HindIII digestion, DYRK1 locus, HEK293T cells. The series is classed as cell-based, human. Conditions: for HDR frequency: nocodazole synchronized cells.
Setting [7] is: nocodazole synchronization, 30 ρmol Cas9 RNP, 50 ρmol HDR template.
[8] abbreviates: 30 and 100 ρmol Cas9 RNP, 100 ρmol HDR template 1, inhibitor synchronization before nucleofection.
[9] abbreviates: 30 ρmol of Cas9, 100 ρmol template 1.
Where [10] appears, read: 100 ρmol of Cas9, 100 ρmol template 1.
The mark [11] stands for this setting: inhibitor-synchronized cells, 30 ρmol of Cas9, 100 ρmol template 1.
Setting [12] is: all doses of Cas9 RNP, vs unsynchronized.

Entries after “also recorded” stand apart in the source; their conditions may differ.

“template 7: double-stranded HDR template assembled from two fragments by overlapping PCR of HEK293T genomic DNA (sense AAGCTTGGATCC; antisense GGATCCAAGCTT; DNA, phosphodiester; double-stranded HDR donor assembled by overlapping PCR)” returned an HDR frequency in series [1] (setting [7]) of about 7%.
Consider `CC[C@H](C)C(=O)O[C@H]1C[C@@H](C)C=C2C=C[C@H](C)[C@H](CC[C@@H]3C[C@@H](O)CC(=O)O3)[C@H]21` [lovastatin], for which, in series [1] (setting [8]), the “HDR frequency compared to the unsynchronized cells” value is “greatly decreased”. Further, in series [2] (setting [8]), the “NHEJ frequency compared to the unsynchronized cells” value is on record as “greatly decreased”.
As for “template 3: single-stranded oligonucleotide HDR template with HindIII and BamHI sites, 60-nt homology arms (DNA GGATCCAAGCTT; single-stranded DNA HDR donor oligonucleotide, chemistry not given here)”, in series [1] (setting [7]), the HDR frequency was determined as 19%. In addition, the “Increase of HDR frequency on extending homology arms from 30 nt to 60 nt” value in series [1] (nocodazole synchronization, vs template 2) is “four-fold”.
Take “template 2: single-stranded oligonucleotide HDR template with HindIII and BamHI sites, 30-nt homology arms (DNA GGATCCAAGCTT; single-stranded DNA HDR donor oligonucleotide, chemistry not given here)”: in series [1] (setting [7]), the HDR frequency is reported as 5%.
Take `Cc1cn([C@H]2C[C@H](O)[C@@H](CO)O2)c(=O)[nH]c1=O` [thymidine]: the “HDR frequency compared to the unsynchronized cells” value in series [1] (setting [9]) is “slightly reduced”. Moreover, in series [1] (setting [10]), the “HDR frequency compared to the unsynchronized cells (reduced or not)” value is “not”. Further, the “NHEJ frequency compared to the unsynchronized cells” value in series [2] (setting [9]) is listed as “slightly reduced”. Besides, the “NHEJ frequency compared to the unsynchronized cells (reduced or not)” value in series [2] (setting [10]) is listed as “not”.
With `NC(Cn1ccc(=O)c(O)c1)C(=O)O` (centres unmarked) [mimosine], the “HDR frequency compared to the unsynchronized cells” value in series [1] (setting [8]) is listed as “greatly decreased”. Besides, in series [2] (setting [8]), the “NHEJ frequency compared to the unsynchronized cells” value is reported as “greatly decreased”.
The molecule “template 6: double-stranded HDR template PCR amplified from single-stranded template 5 (sense AAGCTTGGATCC; antisense GGATCCAAGCTT; DNA, phosphodiester; double-stranded PCR-amplified HDR donor)” yielded an HDR frequency in series [1] (setting [7]) of about 7%.
For `C[C@@]1(CO)[C@H](O)CC[C@@]2(C)[C@H]1CC[C@H]1C[C@@H]3C[C@@]12CC[C@]3(O)CO` [aphidicolin], the HDR frequency in series [1] (setting [11]) worked out at 15%. Further, the “HDR frequency with aphidicolin block” value in series [1] (nocodazole synchronized, aphidicolin 2 μg/ml added to media immediately after nucleofection, 30 ρmol Cas9 RNP, 50 ρmol template) is recorded as “significantly reduced”. In addition, the “NHEJ frequency compared to the unsynchronized cells” value in series [2] (setting [9]) is reported as “increased the NHEJ frequency slightly”. In addition, the Cell viability result with human ES cells is “substantial drop in cell viability”.
Take `NC(=O)NO` [hydroxyurea]: the “HDR frequency compared to the unsynchronized cells” value in series [1] (setting [8]) is on record as “greatly decreased”. Further, the “NHEJ frequency compared to the unsynchronized cells” value in series [2] (setting [8]) was “greatly decreased”.
On to “template 1: 183-nt single-strand DNA oligonucleotide HDR donor encoding a HindIII site, 90-nt and 55-nt asymmetrical homology arms (DNA CCACCGCTACGAAGCTTGTCATTGGAGGTGACATCGATGTCCTC; single-stranded DNA HDR donor oligonucleotide, chemistry not given here)”, for which the “HDR frequency compared between templates” value in series [1] (30 ρmol Cas9 RNP, 50 ρmol HDR template) is given as “lower HDR frequency than template 3”.
Molecule “template 4: single-stranded HDR template, 90-nt homology arms, complementary orientation (DNA GGATCCAAGCTT; single-stranded DNA HDR donor oligonucleotide, chemistry not given here)” yielded an HDR frequency in series [1] (setting [7]) of 23%.
With `COC(=O)Nc1nc2ccc(C(=O)c3cccs3)cc2[nH]1` [nocodazole], in series [1] (30 ρmol Cas9 RNP, 50 ρmol HDR template (templates 1-7)), the “HDR frequency relative to the unsynchronized cells” value is reported as “overall higher HDR frequency”. Besides, the HDR frequency in series [1] (setting [11]) is on record as 19%; in series [6] (10 ρmol Cas9 RNP), 5-6%; in series [6] (30 ρmol Cas9 RNP), 12-17%; in series [6] (100 ρmol Cas9 RNP) it was 24-25%. For the same molecule, the HDR efficiency is on record as 9-15% in series [1] (nocodazole synchronization, 10 ρmol Cas9 RNP); 22-28% in series [1] (nocodazole synchronization, 30 ρmol Cas9 RNP); 24-32% in series [1] (nocodazole synchronization, 100 ρmol Cas9 RNP). For the same molecule, the “Highest HDR frequency (representative gel of triplicate experiment)” value in series [1] (nocodazole synchronization, 100 ρmol of Cas9, 100 ρmol template 1) stood at 31%. Moreover, in the series with HEK293T cells, the “Enrichment of cells arrested at M phase (DNA content, FACS)” value is “two-fold enrichment; also recorded: three-fold enrichment”. Further, the “Enhancement of NHEJ frequency by nocodazole synchronization” value in series [3] (setting [12]) is “more than two-fold”. For the same molecule, the NHEJ frequency is on record as 20-24% in series [3] (10 ρmol Cas9 RNP); 45-47% in series [3] (30 ρmol Cas9 RNP); 63-65% in series [3] (100 ρmol Cas9 RNP); 15-17% in series [2] (10 ρmol Cas9 RNP); 35-37% in series [2] (30 ρmol Cas9 RNP); 46-49% in series [2] (100 ρmol Cas9 RNP). Also, the figures for the NHEJ frequency in series [4] (30 ρmol Cas9 RNP) and in series [4] (100 ρmol Cas9 RNP) were 9% and 28-31%, respectively. Also, the “NHEJ frequency compared to the unsynchronized cells” value in series [2] (setting [9]) is “increased the NHEJ frequency slightly”. The “Increase of NHEJ frequency by synchronization” value is reported as “two-fold” in series [2] (nocodazole vs unsynchronized, 10 ρmol Cas9 RNP) and 1.5 fold in series [2] (nocodazole vs unsynchronized, 30 ρmol Cas9 RNP). Moreover, the “Enhancement of NHEJ frequency by synchronization” value in series [2] (nocodazole vs unsynchronized, 100 ρmol Cas9 RNP) is “diminished”. Also, the HDR events entry in series [5] was “no HDR event was detected”. Moreover, in series [6] (setting [12]), the “Enhancement of HDR frequency by nocodazole synchronization” value is reported as “over six-fold”.

B1: template 5: single-stranded HDR template, 90-nt homology arms, non-complementary orientation (SEQ ID NO:1397) (nucleic acid)
DNA: TGGCCAGGGAGTGGCCAGAGTCCAGCTTGGGCCCACGCAGGGGCCTGGCCAGCAGCAAGCAGCACTCTGCCCTCGTGGGTTTGTGGTTGCGGATCCAAGCTTTTGGAGGTGACATCGATGTCCTCCCCATTGGCCTGCTTCGTGGCAATGCGCCACCGGTTGATGTGATGGGAGCCCTTCTTCTTCTGCTCG
modifications: Synthetic nucleic acid sequence
B1: in series [1] (setting [7]), the HDR frequency stood at 20%.
